Experimental findings from ChEMBL document CHEMBL5537172 (J Med Chem, 2024) are described below.

For orientation: IC50 means the concentration needed to halve the response being measured. Usually EC50 stands for the concentration that produces a half-maximal response. A lower EC50 goes with a more potent agent. In general, pKa refers to the negative logarithm of the acid dissociation constant. High values mean a group that holds its proton tightly, low ones a group that gives up its proton readily.

In series [1] the target is Protein kinase C alpha type (Homo sapiens, UniProt P17252). As to the kind of experiment: Inhibition of PKCalpha (unknown origin) incubated for 15 mins in presence of 33P-ATP by Topcount scintillation counting method.
The target of series [2] is T1, Protein kinase C theta type (Homo sapiens, UniProt Q04759). Kind of series: Inhibition of PKCtheta (unknown origin) incubated for 15 mins in presence of 33P-ATP by Topcount scintillation counting method.
T1 sequence (Q04759 whole entry): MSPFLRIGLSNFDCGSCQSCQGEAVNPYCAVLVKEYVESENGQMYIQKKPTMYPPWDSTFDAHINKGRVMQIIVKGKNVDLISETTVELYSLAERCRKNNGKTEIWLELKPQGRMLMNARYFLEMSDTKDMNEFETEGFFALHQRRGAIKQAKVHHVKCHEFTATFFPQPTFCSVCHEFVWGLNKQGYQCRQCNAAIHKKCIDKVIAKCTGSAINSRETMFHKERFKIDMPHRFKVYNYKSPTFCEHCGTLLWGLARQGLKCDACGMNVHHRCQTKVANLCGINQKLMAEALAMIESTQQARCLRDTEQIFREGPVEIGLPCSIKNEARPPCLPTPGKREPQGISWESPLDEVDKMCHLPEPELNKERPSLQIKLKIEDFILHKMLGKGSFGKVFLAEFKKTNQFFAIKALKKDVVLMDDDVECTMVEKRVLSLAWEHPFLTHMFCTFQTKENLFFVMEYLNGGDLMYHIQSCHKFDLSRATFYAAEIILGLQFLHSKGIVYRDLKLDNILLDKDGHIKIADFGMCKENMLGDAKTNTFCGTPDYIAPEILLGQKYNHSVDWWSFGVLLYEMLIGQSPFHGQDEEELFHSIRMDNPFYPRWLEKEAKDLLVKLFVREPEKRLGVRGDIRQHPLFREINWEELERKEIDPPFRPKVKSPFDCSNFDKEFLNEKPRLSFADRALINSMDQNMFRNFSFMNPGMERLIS
A short description of another series: cells. Conditions: Homo sapiens, 92-1, 72 h.
Series [3] in a line: Dissociation constant, pKa of compound. In kind it is physicochemical.
Series [4] deals with 5-hydroxytryptamine receptor 2B (Homo sapiens, UniProt P41595). Kind of series: Agonist activity at 5HT2B (unknown origin). The format is toxicity.
Sequence of 5-hydroxytryptamine receptor 2B (P41595 whole entry): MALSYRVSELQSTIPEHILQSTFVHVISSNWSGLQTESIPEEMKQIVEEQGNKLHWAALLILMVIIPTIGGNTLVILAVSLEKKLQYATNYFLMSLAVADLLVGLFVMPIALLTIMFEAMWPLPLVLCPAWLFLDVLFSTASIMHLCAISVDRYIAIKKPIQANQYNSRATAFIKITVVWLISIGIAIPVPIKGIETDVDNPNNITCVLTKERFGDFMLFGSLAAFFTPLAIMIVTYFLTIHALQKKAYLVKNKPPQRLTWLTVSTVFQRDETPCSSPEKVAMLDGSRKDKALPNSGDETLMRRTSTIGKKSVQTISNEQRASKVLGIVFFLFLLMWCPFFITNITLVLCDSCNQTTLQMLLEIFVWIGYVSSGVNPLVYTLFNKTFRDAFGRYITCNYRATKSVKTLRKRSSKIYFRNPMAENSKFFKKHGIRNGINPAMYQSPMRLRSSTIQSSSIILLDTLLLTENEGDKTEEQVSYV
Series [5] addresses Glycogen synthase kinase-3 beta (Homo sapiens, UniProt P49841). As to the kind of experiment: Inhibition of GSK3beta (unknown origin). The format is toxicity.
Series [6] has as its target T2, Receptor-type tyrosine-protein kinase FLT3 (Homo sapiens, UniProt P36888).
T2 sequence (P36888 whole entry): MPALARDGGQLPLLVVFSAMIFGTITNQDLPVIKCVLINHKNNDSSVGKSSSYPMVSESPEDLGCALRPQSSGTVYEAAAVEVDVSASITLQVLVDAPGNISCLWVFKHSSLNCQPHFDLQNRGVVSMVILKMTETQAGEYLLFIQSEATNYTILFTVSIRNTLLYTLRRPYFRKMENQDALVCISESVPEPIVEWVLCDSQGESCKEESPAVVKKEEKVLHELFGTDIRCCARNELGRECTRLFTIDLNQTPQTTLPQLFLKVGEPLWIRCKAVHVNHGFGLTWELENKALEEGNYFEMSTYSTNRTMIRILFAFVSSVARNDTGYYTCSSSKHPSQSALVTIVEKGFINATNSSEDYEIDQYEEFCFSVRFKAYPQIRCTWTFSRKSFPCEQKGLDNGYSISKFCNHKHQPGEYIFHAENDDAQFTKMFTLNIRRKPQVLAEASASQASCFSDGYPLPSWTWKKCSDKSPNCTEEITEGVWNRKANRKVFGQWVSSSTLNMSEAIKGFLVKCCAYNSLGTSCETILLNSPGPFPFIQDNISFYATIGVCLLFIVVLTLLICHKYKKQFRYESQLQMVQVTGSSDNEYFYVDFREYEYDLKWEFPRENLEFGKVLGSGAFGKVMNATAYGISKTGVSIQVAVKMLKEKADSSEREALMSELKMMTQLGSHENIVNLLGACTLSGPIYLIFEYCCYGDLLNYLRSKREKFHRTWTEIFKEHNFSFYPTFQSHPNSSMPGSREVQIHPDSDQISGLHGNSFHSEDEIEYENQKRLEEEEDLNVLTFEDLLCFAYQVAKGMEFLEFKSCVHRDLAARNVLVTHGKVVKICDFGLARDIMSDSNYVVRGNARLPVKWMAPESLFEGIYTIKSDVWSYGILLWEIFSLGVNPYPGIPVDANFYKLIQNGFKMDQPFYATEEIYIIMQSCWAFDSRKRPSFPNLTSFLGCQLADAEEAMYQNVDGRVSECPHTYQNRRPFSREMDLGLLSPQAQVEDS
As to the kind of experiment: Inhibition of FLT3 (unknown origin). In kind it is toxicity.

Series [7] is described as follows: Toxicity in mouse xenografted with human 92-1 cells assessed as enlarged GI track at 100 mg/kg, qd measured upto 15 days. The format is organism-based. The note with it: in vivo, 360 h, time < 15 day. A general note: Xenograft models place foreign cells or tissue in a host animal.
The nature of series [8]: Toxicity in mouse xenografted with human 92-1 cells assessed as abdominal distention at 100 mg/kg, qd after 1 week. In kind it is organism-based. The note with it: in vivo, 168 h, time 1 weeks.
In series [9] the test system is 92-1. As to the kind of experiment: Antitumor activity against human 92-1 cells xenografted in mouse assessed as tumor suppression at 100 mg/kg, qd. In kind it is functional, organism-based.
Series [10] in a line: Toxicity in mouse xenografted with human 92-1 cells assessed as body weight loss at 100 mg/kg, qd measured upto 15 days. The format is organism-based. The note with it: in vivo, 360 h, time < 15 day.
The target in series [11] is Protein kinase C eta type (Homo sapiens, UniProt P24723). As to the kind of experiment: Inhibition of PKCeta (unknown origin).
Sequence of Protein kinase C eta type (P24723 whole entry): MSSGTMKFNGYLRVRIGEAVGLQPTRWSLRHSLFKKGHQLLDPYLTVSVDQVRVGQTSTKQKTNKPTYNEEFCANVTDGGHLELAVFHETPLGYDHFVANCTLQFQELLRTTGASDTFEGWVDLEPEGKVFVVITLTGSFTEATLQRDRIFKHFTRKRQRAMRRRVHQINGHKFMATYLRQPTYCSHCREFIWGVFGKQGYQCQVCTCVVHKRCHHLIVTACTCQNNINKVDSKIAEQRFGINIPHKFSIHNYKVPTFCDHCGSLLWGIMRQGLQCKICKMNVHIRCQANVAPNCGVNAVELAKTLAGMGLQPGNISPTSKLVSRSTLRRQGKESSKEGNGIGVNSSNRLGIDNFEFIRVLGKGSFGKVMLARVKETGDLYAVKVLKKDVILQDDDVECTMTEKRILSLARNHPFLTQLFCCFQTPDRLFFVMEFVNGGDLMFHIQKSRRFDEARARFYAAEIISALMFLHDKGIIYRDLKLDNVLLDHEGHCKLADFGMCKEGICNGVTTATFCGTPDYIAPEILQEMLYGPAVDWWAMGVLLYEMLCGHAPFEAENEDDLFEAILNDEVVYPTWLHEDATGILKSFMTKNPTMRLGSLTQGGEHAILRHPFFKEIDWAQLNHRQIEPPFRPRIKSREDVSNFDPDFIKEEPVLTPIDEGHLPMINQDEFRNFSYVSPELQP
Series [12] concerns the target Protein kinase C delta type (Homo sapiens, UniProt Q05655). Kind of series: Inhibition of PKCdelta (unknown origin).
For series [13], the target named is Protein kinase C gamma type (Homo sapiens, UniProt P05129). As to the kind of experiment: Inhibition of PKCgamma (unknown origin).
Series [14] concerns the target T3, Protein kinase C epsilon type (Homo sapiens, UniProt Q02156).
T3 sequence (Q02156 whole entry): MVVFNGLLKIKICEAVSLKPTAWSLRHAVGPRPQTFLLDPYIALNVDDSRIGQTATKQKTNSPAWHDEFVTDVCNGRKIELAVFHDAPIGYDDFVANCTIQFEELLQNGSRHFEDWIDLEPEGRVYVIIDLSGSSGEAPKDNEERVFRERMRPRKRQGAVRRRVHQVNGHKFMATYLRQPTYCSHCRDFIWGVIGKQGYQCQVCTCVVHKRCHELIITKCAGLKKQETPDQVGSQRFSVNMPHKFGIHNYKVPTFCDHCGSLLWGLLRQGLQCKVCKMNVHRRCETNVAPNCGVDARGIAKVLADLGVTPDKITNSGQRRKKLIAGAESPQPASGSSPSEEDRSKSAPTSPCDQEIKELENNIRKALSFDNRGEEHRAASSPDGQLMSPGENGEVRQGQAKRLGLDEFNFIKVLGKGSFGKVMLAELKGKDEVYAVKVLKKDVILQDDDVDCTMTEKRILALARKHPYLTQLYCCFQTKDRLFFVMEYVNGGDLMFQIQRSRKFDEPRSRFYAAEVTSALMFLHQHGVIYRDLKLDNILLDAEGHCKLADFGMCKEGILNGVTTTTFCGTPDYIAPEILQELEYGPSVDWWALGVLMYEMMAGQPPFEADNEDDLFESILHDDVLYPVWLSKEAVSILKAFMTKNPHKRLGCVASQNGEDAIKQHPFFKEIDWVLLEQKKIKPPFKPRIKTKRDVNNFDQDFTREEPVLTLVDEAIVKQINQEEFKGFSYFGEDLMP
As to the kind of experiment: Inhibition of PKCepsilon (unknown origin).

Series [15] relates to 92-1. As to the kind of experiment: Antitumor activity against human 92-1 cells xenografted in mouse assessed as tumor suppression at 120 mg/kg, bid. In kind it is functional, organism-based.
The target of series [16] is T1, Protein kinase C theta type. Kind of series: Inhibition of PKCtheta (unknown origin).
Another series has as its system SK-MEL-28. Kind of series: cells. Conditions: Homo sapiens.

The source made the active and inactive calls. The calls are words filed in the database; no cut-off is given here. Some results are limits rather than exact numbers.

Sequence of Glycogen synthase kinase-3 beta (P49841 whole entry): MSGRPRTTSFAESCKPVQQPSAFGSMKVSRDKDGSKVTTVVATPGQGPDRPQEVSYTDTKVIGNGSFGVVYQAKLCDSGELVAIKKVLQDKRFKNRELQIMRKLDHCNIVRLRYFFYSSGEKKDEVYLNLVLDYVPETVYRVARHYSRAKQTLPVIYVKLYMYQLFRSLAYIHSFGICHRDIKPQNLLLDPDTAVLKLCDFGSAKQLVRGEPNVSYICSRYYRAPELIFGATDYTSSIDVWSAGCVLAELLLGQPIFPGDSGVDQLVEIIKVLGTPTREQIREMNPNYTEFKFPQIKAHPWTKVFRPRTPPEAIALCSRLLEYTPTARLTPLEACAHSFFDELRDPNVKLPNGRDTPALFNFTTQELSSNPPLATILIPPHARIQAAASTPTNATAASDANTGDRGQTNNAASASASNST
Sequence of Protein kinase C delta type (Q05655 whole entry): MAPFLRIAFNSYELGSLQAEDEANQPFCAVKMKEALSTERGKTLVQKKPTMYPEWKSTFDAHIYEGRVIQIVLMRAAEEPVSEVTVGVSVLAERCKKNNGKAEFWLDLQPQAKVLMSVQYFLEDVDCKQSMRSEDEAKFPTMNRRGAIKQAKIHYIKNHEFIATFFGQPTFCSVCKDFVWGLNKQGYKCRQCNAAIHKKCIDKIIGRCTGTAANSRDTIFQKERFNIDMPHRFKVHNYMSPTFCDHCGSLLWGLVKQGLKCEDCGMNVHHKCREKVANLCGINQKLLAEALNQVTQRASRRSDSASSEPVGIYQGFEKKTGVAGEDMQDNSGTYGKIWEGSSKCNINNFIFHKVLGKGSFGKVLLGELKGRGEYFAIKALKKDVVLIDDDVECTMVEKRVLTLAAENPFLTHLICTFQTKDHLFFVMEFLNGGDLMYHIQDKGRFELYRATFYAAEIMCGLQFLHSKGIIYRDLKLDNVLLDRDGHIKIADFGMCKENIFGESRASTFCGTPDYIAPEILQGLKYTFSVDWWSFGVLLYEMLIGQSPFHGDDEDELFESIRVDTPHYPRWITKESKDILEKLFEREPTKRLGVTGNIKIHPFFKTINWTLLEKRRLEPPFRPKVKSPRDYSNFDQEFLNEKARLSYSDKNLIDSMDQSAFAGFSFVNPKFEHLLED

As to `Nc1ncc(-c2ncccc2C(F)(F)F)nc1C(=O)Nc1ncccc1N1C[C@H]2CC[C@@H](C1)[C@@H]2N`, the 50% inhibitory concentration (IC50) was 10 nM in series [1] and 3 nM in [2]. The 50% effective concentration (EC50) is 1390 nM in the series “cells” and more than 30000 nM in series [4]. Also, the pKa in series [3] was determined as 9.4.

Take `CN(C)c1ccc(C(F)(F)F)c(-c2cnc(N)c(C(=O)Nc3ncccc3N3CCC(N)CC3)n2)n1`: the IC50 is 2700 nM in series [5] and 95 nM in series [6]. The EC50 in the series “cells” is 66 nM.

For `Nc1ncc(-c2ncccc2OC(F)(F)F)nc1C(=O)Nc1cnccc1N1CCC(N)CC1`, the concentration for half-maximal inhibition (IC50) in [5] amounted to 10 nM; in series [6], 230 nM. The Activity result in series [7], in [8] and in series [10] was “Toxic” throughout. Further, the EC50 in “cells” turned out to be 36 nM. Also, the outcome in the series with 92-1 [9] was Active.

For `CNc1ncc(-c2ncccc2OC(F)(F)F)nc1C(=O)Nc1cnccc1N1CCC(N)CC1`, the Activity result in [7], in [8] and in series [10] was “Non-Toxic” each time. For the same compound, the 50% inhibitory concentration (IC50) in “cells” was determined as 3700 nM.

As for `Nc1ncc(-c2ncccc2OC(F)(F)F)nc1C(=O)Nc1ncccc1N1CCC(N)CC1`, the EC50 came to 180 nM in “cells” and 200 nM in series [4]. Besides, the IC50 in series [6] is 8460 nM. This compound showed a pKa in series [3] of 8.9.

For the compound `Nc1ncc(-c2ncccc2C(F)(F)F)nc1C(=O)Nc1cccnc1N1CCC(N)CC1`, the 50% inhibitory concentration (IC50) was 6900 nM in series [5], 43 nM in series [1], 69 nM in [2] and 3000 nM in [6]. In addition, a half-maximal response in the series “cells” (EC50) required 3660 nM.

With `Nc1ncc(-c2ncccc2OC(F)(F)F)nc1C(=O)Nc1ncccc1N1CCC(N)C(F)(F)C1` (stereo not drawn), the IC50 in [1] is 11 nM; in series [2] it was 10 nM. For the same compound, the EC50 was 1740 nM in the series “cells” and 2000 nM in series [4]. The compound further gave a pKa in series [3] of 6.

Regarding `Nc1ncc(-c2ncnc3sccc23)nc1C(=O)Nc1ncccc1N1CCC(N)CC1`, the IC50 in series [5] stood at 710 nM; in series [6], 4100 nM.

In series [6], `Nc1ncc(-c2ncccc2C(F)(F)F)nc1C(=O)Nc1ncccc1N1CCC(N)CC1` showed an IC50 of 8700 nM. Also, the EC50 in series [4] came out at 160 nM.

On to `Nc1ncc(-c2cccc3[nH]ccc23)nc1C(=O)Nc1ncccc1N1CCC(N)CC1`, for which the values for the IC50 in series [5] and in series [6] were 19 nM and 33 nM, respectively. The concentration for a half-maximal effect (EC50) in the series “cells” is 11 nM; in series [4] it was 780 nM.

Consider `Nc1ncc(-c2nc(N3CCC3)ccc2C(F)(F)F)nc1C(=O)Nc1ncccc1N1CCC(N)CC1`, for which the half-inhibitory concentration (IC50) came to 2900 nM in [5] and 140 nM in [6].

As to `COC1CN(c2cccnc2NC(=O)c2nc(-c3ncccc3OC(F)(F)F)cnc2N)CCC1N` (trans isomer), the EC50 in “cells” was 2800 nM; in series [4], more than 30000 nM. Further, the pKa in series [3] came to 8.

On to `CO[C@H]1CN(c2ccncc2NC(=O)c2nc(-c3ncccc3OC(F)(F)F)cnc2N)CC[C@@H]1N`, for which the values for the IC50 (in series [1]; in [2]; in the series “cells”) were 0.2 nM, 2 nM and 140 nM, respectively.

Turning to `Nc1ncc(-c2ncccc2OC(F)(F)F)nc1C(=O)Nc1ccncc1N1CCC(N)CC1`, the IC50 is 530 nM in series [5], 0.4 nM in [1], 1.3 nM in series [2] and 30 nM in series [6]. In addition, the EC50 in “cells” is 230 nM.

Consider `Nc1ncc(-c2ncccc2OC(F)(F)F)nc1C(=O)Nc1ncccc1N1CCC(N)C(F)C1` (stereo not drawn), for which the figures for the concentration giving a half-maximal response (EC50) (in “cells”; in [4]) were 153 nM and 43 nM, respectively. The same compound had a pKa in series [3] of 7.6.

Turning to `CN1CCN(c2nc(C3=C(c4c[nH]c5ccccc45)C(=O)NC3=O)c3ccccc3n2)CC1` [SOTRASTAURIN], the concentration for half-maximal inhibition (IC50) in series [11] came out at 5.9 nM; in series [12], 6 nM; in series [2], 0.3 nM; in “cells”, 250 nM; in series [13] it was 64 nM; in series [14], 5.4 nM. Besides, the results for the IC50 (in [16]; with SK-MEL-28) were 2.1 nM and more than 10000 nM, respectively. Moreover, the result with 92-1 [15] was Active.

As for `Nc1ncc(-c2nc(N3CCOCC3)cc3ccccc23)nc1C(=O)Nc1ncccc1N1CCC(N)CC1`, the values for the EC50 (in “cells”; in series [4]) were 22 nM and 160 nM, respectively.

With `Nc1ncc(-c2cccc3[nH]ncc23)nc1C(=O)Nc1ncccc1N1CCC(N)CC1`, the half-inhibitory concentration (IC50) in series [5] stood at 41 nM; in series [6], 31 nM.

In the case of `Nc1ncc(-c2nc(N3CCOCC3)ccc2C(F)(F)F)nc1C(=O)Nc1ncccc1N1CCC(N)CC1`, in series [6], the IC50 was 230 nM. The compound also gave an EC50 in [4] of 150 nM.

`Nc1ncc(-c2ncccc2F)nc1C(=O)Nc1ncccc1N1CCC(N)CC1` registered a concentration giving a half-maximal response (EC50) in [4] of 41 nM.
